Test results taken from patent US20030124023A1, “Method of sterilizing heart valves” (priority 2001, published 2003).
Blank lines part the entries; values can stand above or below the molecule they belong to.

Experiments:
[1] = Solubility of coumaric acid in DMSO/water (50% DMSO); assay type: physicochemical
Protocol: All stabilizers were prepared so that the final concentration of DMSO was 50%. Dissolve 34.7 mg in 106 μl DMSO, pH ≈3.0 138 μl H2O was added.

physchem = test: physchem
Protocol: A. Preparation of Stabilizer Solutions:
The 0.5 M solution was not soluble; therefore an additional 2 ml of PPG was added.
An additional 1 ml PPG was added and further water bath sonicated.
The 0.5M solution was soluble after a 20-30 minute water bath sonication.
Very soluble after 10 minute water bath sonication.

[2] = system: porcine heart valve cusps; test: Example 2: quantification of collagen crosslinks (pyd) by HPLC after gamma irradiation
Protocol: In this experiment, the effects of gamma irradiation were determined on porcine heart valve cusps in the presence of 50% DMSO and, optionally, a stabilizer, and in the presence of polypropylene glycol 400 (PPG400). 1.6 ml of a solution (stabilizer mixture or PPG400) was added to each sample and then the sample was incubated at 4° C. for 2.5 days. Valves and 1 ml of the solution in which they were incubated were then transferred into 2 ml irradiation vials. Each sample was irradiated with gamma irradiation at a rate of 1.723 kGy/hr at 3.6° C. to a total dose of 25 kGy. 3. Weighed the samples, transferred them to hydrolysis vials and then added 6 N HCl at a volume of 20 mg tissue/ml HCl: 5. Samples were hydrolyzed at 110° C. for approximately 23 hours. 13. Eluted crosslinks with 5 ml 2 N HCl into a low binding tube. 50 ml 2 N HCl:8.6 ml concentrated HCl adjusted to a volume of 50 ml with Nerl H2O. 1. Prepared 100-200 μl 1× solution in 1% heptafluorobutyric acid (HFBA). 2. Injected 50 μl on C18 HPLC column equilibrated with mobile phase. 3. Spectrofluorometer was set for excitation at 295 nm and emission at 395 nm. 4. Calculated the integrated fluorescence of Internal-Pyridinoline (Int-Pyd) per 1 μl of 1× solution of Int-Pyd.

[3] = system: porcine AV heart valve cusps; test: Example 3: HPLC analysis of frozen gamma irradiated AV heart valve cusps; settings: 30 kGy, 1.584 kGy/hr, −20° C.
Protocol: In this experiment, frozen porcine AV heart valves soaked in various solvents were gamma irradiated to a total dose of 30 kGy at 1.584 kGy/hr at −20° C. 5. Added 1.0 ml of the following to two of each of two tubes: dPBS, 50% DMSO and 50% DMSO with 200 mM sodium ascorbate (2M sodium ascorbate stock was diluted as follows: 400 μl (2M)+1.6 ml water+2ml 100% DMSO). 6. Incubated tubes at 4° C. with nutating for ˜46 hours. 8. All vials were frozen on dry ice. 9. Frozen samples were then irradiated at −20° C. at a rate of 1.584 kGy/hr to a total dose of 30 kGy.

- solubility in DMSO after addition of H2O ([1]; 34.7 mg in 106 μl DMSO, pH ≈3.0, 138 μl H2O added): precipitated out of solution
- solubility in DMSO/H2O after pH adjustment ([1]; pH adjusted to 7.5 with 1 N NaOH): went back into solution
- solubility of stabilizer stock in PPG (physchem): not 100% soluble
Compound: O=C(O)/C=C/c1ccc(O)cc1 [Coumaric Acid]

- solubility of stabilizer stock in PPG (physchem): soluble
Compound: CCCOC(=O)c1cc(O)c(O)c(O)c1 [n-Propyl Gallate]

- solubility of stabilizer stock in PPG (physchem): not soluble
- solubility (physchem; 25 °C, organic solvent or mixture, thermodynamic from solid): ≥ 125 mM
Compound: Cc1c(C)c2c(c(C)c1O)CCC(C)(C(=O)O)O2 (centres unmarked) [Trolox C, 6-hydroxy-2,5,7,8-tetramethylchroma-2 carboxylic acid]

Compound: C[S+](C)[O-] [DMSO, dimethylsulfoxide]
- Area of Pyd Peak ([2]; 0 kGy (not irradiated)): 87880
- Area of Pyd Peak ([2]; 25 kGy, 1.723 kGy/hr, 3.6° C.): 49030
- HPLC profile, irradiated versus not irradiated ([2]; 25 kGy, 1.723 kGy/hr, 3.6° C., DMSO at 50%): less effective
- HPLC profile, irradiated versus not irradiated ([3]; 20% DMSO): reproduced these peaks more faithfully
- HPLC profile, irradiated versus not irradiated ([3]; 50% DMSO): slightly more effective
